Assay results reported in US20220304979A1, “METHODS OF REDUCING DISEASE FLARES” (Chinook Therapeutics, Inc., priority 2019, published 2022).

Key:
[1] = test system: primary human renal mesangial cells (HRMCs); experiment: proliferation (BrdU) of mesangial cells stimulated with IgA-containing immune complexes; assay type: cell-based; conditions: immune complexes purified from three patients with IgA nephropathy
Description: Primary human mesangial cells in a culture were stimulated with pathogenic galactose deficient (Gd)-IgA containing immune complexes isolated from human IgA nephropathy patients. […] Specifically, pathogenic IgA-containing immune complexes were isolated from serum from either IgA nephropathy patients or age, gender and ethnicity-matched healthy individuals. Frozen serum was purchased from BioIVT and IgA-containing immune complexes were purified using jacalin affinity chromatography. […] Purified IgA-containing immune complexes were concentrated using a 100K Amicon filtration unit and the amount of total IgA and galactose-deficient IgA (Gd-IgA) in the immune complexes was measured by ELISA (ThermoFisher and IBL America, respectively). […] See, e.g., Novak et. al., Kidney International, 67, pp. 504-516; 2005; Novak et. al., Nephrol. Dial. Transplant, 26, pp. 3451-3457; 2011; Liang et. al., Cell Physiol. Biochem., 36, pp. 1793-1808; 2015; Nguyen et. al., Clin. Kidney 1, 12 (2), pp, 232-238; 2019.

[2] = test system: kidney tissue of g-ddY mice; experiment: Ingenuity Pathway Analysis (IPA) canonical pathways of kidney RNA-seq, g-ddY mice; assay type: in vivo, mouse; conditions: 30 mg/kg/day
[3] = patients with diabetic kidney disease (DKD); cited from earlier work
g-ddY mice = experiment: albuminuria (UACR) in g-ddY mouse model of IgA nephropathy; assay type: in vivo; conditions: for albuminuria compared to baseline: approximately 5 days
Description: The grouped ddY (g-ddY) mouse is a spontaneous model of early-onset IgA nephropathy characterized by IgA immune complex deposition in the mesangium of the kidney, leading to significant proteinuria, glomerular hypercellularity, mesangioproliferative glomerular lesions, glomerular sclerosis and reduced kidney function, all hallmarks of human IgA nephropathy (J Am Soc Nephrol 23: 1364-1374, 2012). Consistent with human IgA nephropathy, the mesangial IgA deposits in the g-ddY mouse are also accompanied by deposition of IgG and complement C3.

[4] = test system: kidney tissue of g-ddY mice; experiment: RNA-seq differential gene expression in kidney tissue of g-ddY mice; assay type: in vivo, mouse
Description: RNA isolation and sequencing libraries were generated using standard protocols. Sequencing was performed using an Illumina NextSeq500 using manufacturer's instructions with a read length of 75 bp and a read depth of 30 million. Raw data was assembled to FASTQ files. Following QC analysis, high quality sequencing reads (e.g., reads with a Phred quality score >36) were aligned to the mouse reference genome (GRCm38-mm10) using the default parameters of the align algorithm and transcript count tables of each library was generated using the default parameters of the featureCounts algorithm of the RSubread package (Liao […], Shi W, 2019). High quality sequencing reads mapped to 27,129 genes. Following additional QC of low count filtering (i.e. transcripts <10 counts across all samples), 16,207 genes were identified and used for further analysis. The remaining sequencing read counts of the included 16,207 genes were normalized to library size, log-transformed, and were quantified as counts per million (CPM). Select RNA-seq counts were validated using qPCR. Sequencing read counts (CPM) were used for identification of differential gene expression between specified populations using the quasi-likelihood methodology of the edgeR package. […] MA plots were generated using edgeR. Heatmaps and other plots were generated using the gplots and ggplot2 package.

[5] = atrasentan 10 mg/kg/day vs 0 mg/kg/day (control), g-ddY mice
[6] = atrasentan 20 mg/kg/day vs 0 mg/kg/day (control), g-ddY mice
[7] = atrasentan 30 mg/kg/day vs 0 mg/kg/day (control), g-ddY mice

CCCCN(CCCC)C(=O)CN1C[C@H](c2ccc3c(c2)OCO3)[C@@H](C(=O)O)[C@@H]1c1ccc(OC)cc1 [atrasentan, (2R,3R,4S)-4-(1,3-benzodioxol-5-yl)-1-[2-(dibutylamino)-2-oxoethyl]-2-(4-methoxyphenyl)pyrrolidine-3-carboxylic acid]
hyperproliferation of HRMCs induced by IgA containing immune complexes [1]: significantly attenuated the hyperproliferation
signaling pathways by IPA analysis [2]: reduced NF-κB signaling, IL-6 pathway signaling (e.g., STAT3), and PDGF signaling
risk of renal events (doubling of serum creatinine or end-stage kidney disease) [3]: significantly reducing the risk of renal events
effect to reduce UACR from baseline compared to control group (g-ddY mice; 10 mg/kg/day): not significant
effect to reduce UACR from baseline compared to control group (g-ddY mice; 20 mg/kg/day, P=0.0498, un-paired t-test): statistically significant compared to the control group
albuminuria compared to baseline (g-ddY mice; 20 mg/kg/day, just failed statistical significance (P=0.0593)): reduced from baseline to a similar extent
effect to reduce UACR from baseline compared to control group (g-ddY mice; 30 mg/kg/day, P=0.029): statistically significant compared to the control group
albuminuria compared to baseline (g-ddY mice; 30 mg/kg/day, paired t-test): significantly (P=0.0002, paired two-sided t-test) reduced albuminuria from baseline
ET1 gene signature genes downregulated versus untreated control ([4]; 10 mg/kg/day): Grk5, Mllt3, Klf2, Pparg, Hgf, Edn1, Fos, Ptgs2, and IL-1b
ET1 gene signature genes upregulated versus untreated control ([4]; 10 mg/kg/day): Ccnd1, Ppara, Agt, Map2k2 and Hoxa9
ET1 gene signature genes downregulated versus untreated control ([4]; 20 mg/kg/day): Nfatc1, Grk5, Klf2, Cav1, Pparg, Itga5, Myc, Ednra, Sell, Hgf, Mmp2, Edn1, Syk, Fos, and IL-1b
ET1 gene signature genes upregulated versus untreated control ([4]; 20 mg/kg/day): Ccdn1, Cat, Ppara, Map2k2, Hoxa9, Agt, and Egfr
ET1 gene signature genes downregulated versus untreated control ([4]; 30 mg/kg/day): Ednrb, Myc, Mllt3, Hdac7, Ednra, Itga5, Grk5, Pparg, Klf2, Hgf, Mmp2, Sell, Sphk1, Fos, Syk, Edn1, and IL-1b
ET1 gene signature genes upregulated versus untreated control ([4]; 30 mg/kg/day): Ccnd1, Agt, Cat, Map2k2, Hoxa9, and Ppara
gene expression of Ednra and Ednrb ([4]; 30 mg/kg/day): downregulated
gene expression of ET1 (End1) ([4]; all three doses (10, 20, 30 mg/kg/day)): downregulated
logFC Ahnak gene expression [4, 5]: −0.5756
logFC Akap12 gene expression [4, 5]: −0.2687
logFC Akt3 gene expression [4, 5]: −0.3863
logFC Aldob gene expression [4, 5]: 0.4194
logFC Ankrd12 gene expression [4, 5]: −0.2824
logFC C7 gene expression [4, 5]: −0.7767
logFC Caldl gene expression [4, 5]: −0.3719
logFC Cblb gene expression [4, 5]: −0.082
logFC Ebfl gene expression [4, 5]: −0.3301
logFC Epb4112 gene expression [4, 5]: −0.4375
logFC Etsl gene expression [4, 5]: −0.2198
logFC Fchsd2 gene expression [4, 5]: −0.2564
logFC Frmd4a gene expression [4, 5]: −0.2838
logFC Gata3 gene expression [4, 5]: −0.4822
logFC Gpx3 gene expression [4, 5]: 0.6802
logFC Igfbp7 gene expression [4, 5]: 0.2052
logFC Lama2 gene expression [4, 5]: −0.2955
logFC Maml2 gene expression [4, 5]: −0.2318
logFC Mef2c gene expression [4, 5]: −0.6217
logFC Meisl gene expression [4, 5]: −0.2507
logFC Myh9 gene expression [4, 5]: −0.2094
logFC Myole gene expression [4, 5]: −0.2349
logFC Nbea gene expression [4, 5]: −0.2819
logFC Nr4a1 gene expression [4, 5]: −1.525
logFC Piezo2 gene expression [4, 5]: −0.4078
logFC Postn gene expression [4, 5]: −1.385
logFC Pparg gene expression [4, 5]: −0.6129
logFC Ppp1r12a gene expression [4, 5]: −0.1995
logFC Prkgl gene expression [4, 5]: −0.2187
logFC Psd3 gene expression [4, 5]: −0.3544
logFC Ptprm gene expression [4, 5]: −0.2614
logFC Rapgef5 gene expression [4, 5]: −0.2732
logFC Raphl gene expression [4, 5]: −0.2965
logFC Rbms3 gene expression [4, 5]: −0.5749
logFC Robol gene expression [4, 5]: −0.4803
logFC Stard13 gene expression [4, 5]: −0.7224
logFC Tacc1 gene expression [4, 5]: −0.2449
logFC Tcf4 gene expression [4, 5]: −0.2176
logFC Tjpl gene expression [4, 5]: −0.2489
logFC Tns3 gene expression [4, 5]: −0.2638
logFC Unc5c gene expression [4, 5]: 0.5618
logFC Utrn gene expression [4, 5]: −0.49
logFC Zeb2 gene expression [4, 5]: −0.5638
logFC Ahnak gene expression [4, 6]: −0.7128
logFC Akap12 gene expression [4, 6]: −0.5404
logFC Akt3 gene expression [4, 6]: −0.4673
logFC Aldob gene expression [4, 6]: 0.4923
logFC Ankrd12 gene expression [4, 6]: −0.2463
logFC C7 gene expression [4, 6]: −1.277
logFC Caldl gene expression [4, 6]: −0.5361
logFC Cblb gene expression [4, 6]: −0.2068
logFC Ebfl gene expression [4, 6]: −0.3512
logFC Epb4112 gene expression [4, 6]: −0.6149
logFC Etsl gene expression [4, 6]: −0.3065
logFC Fchsd2 gene expression [4, 6]: −0.1882
logFC Frmd4a gene expression [4, 6]: −0.3955
logFC Gata3 gene expression [4, 6]: −0.4924
logFC Gpx3 gene expression [4, 6]: 0.71
logFC Igfbp7 gene expression [4, 6]: 0.1088
logFC Lama2 gene expression [4, 6]: −0.4437
logFC Maml2 gene expression [4, 6]: −0.2311
logFC Mef2c gene expression [4, 6]: −0.6302
logFC Meisl gene expression [4, 6]: −0.3593
logFC Myh9 gene expression [4, 6]: −0.4543
logFC Myole gene expression [4, 6]: −0.292
logFC Nbea gene expression [4, 6]: −0.1933
logFC Piezo2 gene expression [4, 6]: −0.6148
logFC Postn gene expression [4, 6]: −2.293
logFC Pparg gene expression [4, 6]: −0.5616
logFC Ppp1r12a gene expression [4, 6]: −0.2135
logFC Prkgl gene expression [4, 6]: −0.328
logFC Psd3 gene expression [4, 6]: −0.5227
logFC Ptprm gene expression [4, 6]: −0.2678
logFC Rapgef5 gene expression [4, 6]: -0.3804
logFC Raphl gene expression [4, 6]: −0.3852
logFC Rbms3 gene expression [4, 6]: −0.7192
logFC Robol gene expression [4, 6]: −0.7261
logFC Stard13 gene expression [4, 6]: −0.6367
logFC Tacc1 gene expression [4, 6]: −0.3693
logFC Tcf4 gene expression [4, 6]: −0.224
logFC Tjpl gene expression [4, 6]: −0.3054
logFC Tns3 gene expression [4, 6]: −0.3043
logFC Unc5c gene expression [4, 6]: 0.3685
logFC Utrn gene expression [4, 6]: −0.5143
logFC Zeb2 gene expression [4, 6]: −0.6492
logFC Ahnak gene expression [4, 7]: −1.013
logFC Akap12 gene expression [4, 7]: −0.8211
logFC Akt3 gene expression [4, 7]: −0.4843
logFC Aldob gene expression [4, 7]: 0.748
logFC Ankrd12 gene expression [4, 7]: −0.4726
logFC C7 gene expression [4, 7]: −1.079
logFC Caldl gene expression [4, 7]: −0.506
logFC Cblb gene expression [4, 7]: −0.4288
logFC Ebfl gene expression [4, 7]: −0.4506
logFC Epb4112 gene expression [4, 7]: −0.7021
logFC Etsl gene expression [4, 7]: −0.3379
logFC Fchsd2 gene expression [4, 7]: −0.3772
logFC Frmd4a gene expression [4, 7]: −0.5742
logFC Gata3 gene expression [4, 7]: −0.5216
logFC Gpx3 gene expression [4, 7]: 1.122
logFC Igfbp7 gene expression [4, 7]: 0.4259
logFC Lama2 gene expression [4, 7]: −0.4895
logFC Maml2 gene expression [4, 7]: −0.4441
logFC Mef2c gene expression [4, 7]: −0.6869
logFC Meisl gene expression [4, 7]: −0.4934
logFC Myh9 gene expression [4, 7]: −0.6171
logFC Myole gene expression [4, 7]: −0.4177
logFC Nbea gene expression [4, 7]: −0.432
logFC Piezo2 gene expression [4, 7]: −0.8237
logFC Postn gene expression [4, 7]: −1.247
logFC Pparg gene expression [4, 7]: −0.6781
logFC Ppp1r12a gene expression [4, 7]: −0.3826
logFC Prkgl gene expression [4, 7]: −0.6356
logFC Psd3 gene expression [4, 7]: −0.5843
logFC Ptprm gene expression [4, 7]: −0.5453
logFC Rapgef5 gene expression [4, 7]: −0.4225
logFC Raphl gene expression [4, 7]: −0.5358
logFC Rbms3 gene expression [4, 7]: −0.8895
logFC Robol gene expression [4, 7]: −0.6009
logFC Stard13 gene expression [4, 7]: −0.8466
logFC Tacc1 gene expression [4, 7]: −0.4924
logFC Tcf4 gene expression [4, 7]: −0.3055
logFC Tjpl gene expression [4, 7]: −0.3989
logFC Tns3 gene expression [4, 7]: −0.4522
logFC Unc5c gene expression [4, 7]: 0.9517
logFC Utrn gene expression [4, 7]: −0.7697
logFC Zeb2 gene expression [4, 7]: −0.6778
